Data as given in US10265328B2, “C-19 steroids for specific therapeutic uses” (Procima GmbH, priority 2007, dated 2019).
Entries after “also recorded” stand apart in the source; their conditions may differ.

Tests used:
breast cancer cells = test: growth of breast cancer cells in culture; format: cell-based; settings: certain breast cancer cells in culture
Text: A further promising concept is based on a comparative evaluation between DHT and the compounds of the present invention. […] This effect may readily hold also true for hormone independent cancer.

5α-reductase = test: 5α-reduction of the compound
aromatase = target: T1, aromatase (Homo sapiens, UniProt P11511); test: aromatization of the compound
T1 sequence (P11511 1-503): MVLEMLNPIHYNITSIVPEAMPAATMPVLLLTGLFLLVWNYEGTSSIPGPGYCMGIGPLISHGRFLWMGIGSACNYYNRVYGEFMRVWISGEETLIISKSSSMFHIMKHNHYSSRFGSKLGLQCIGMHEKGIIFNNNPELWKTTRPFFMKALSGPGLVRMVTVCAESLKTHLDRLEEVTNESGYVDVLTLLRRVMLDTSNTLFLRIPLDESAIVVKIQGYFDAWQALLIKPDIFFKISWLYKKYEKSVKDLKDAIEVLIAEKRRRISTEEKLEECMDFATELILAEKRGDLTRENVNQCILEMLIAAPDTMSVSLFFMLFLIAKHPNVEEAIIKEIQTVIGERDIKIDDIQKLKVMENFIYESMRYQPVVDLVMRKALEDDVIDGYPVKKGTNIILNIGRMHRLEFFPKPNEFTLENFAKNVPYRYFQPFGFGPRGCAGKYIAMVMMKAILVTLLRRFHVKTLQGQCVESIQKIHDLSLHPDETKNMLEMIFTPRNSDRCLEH

skin = test: topical application of a 4-OHT preparation to the skin over cellulite predilection areas; format: in vivo
Text: Not only in theory but also in practice the compounds of the present invention and in particular 4-OHT and its related analogous compounds are the ideal anabolic substances. […] This can be deduced from topical applications to the skin.
The border between the two layers is made up of collagen fibres. Strengthening this border by increasing its collagen content by stimulating the fibroblasts to produce more collagen leads to a marked improvement of the appearance of cellulite.
A topical formulation containing a compound according to the present invention such as 4-OHT or an analogous compound can increase the collagen content of the skin via stimulation of the fibroblasts. […] It is reasonable to assume that 4-OHT has solely anabolic effects. […] Apparently is 4-OHT unable to exert any androgenic effects such as hair growth or pimples.

androgen receptor (AR) = target: T2, androgen receptor (AR) (Homo sapiens, UniProt P10275); test: binding affinity to the androgen receptor compared with DHT
T2 sequence (P10275 1-920): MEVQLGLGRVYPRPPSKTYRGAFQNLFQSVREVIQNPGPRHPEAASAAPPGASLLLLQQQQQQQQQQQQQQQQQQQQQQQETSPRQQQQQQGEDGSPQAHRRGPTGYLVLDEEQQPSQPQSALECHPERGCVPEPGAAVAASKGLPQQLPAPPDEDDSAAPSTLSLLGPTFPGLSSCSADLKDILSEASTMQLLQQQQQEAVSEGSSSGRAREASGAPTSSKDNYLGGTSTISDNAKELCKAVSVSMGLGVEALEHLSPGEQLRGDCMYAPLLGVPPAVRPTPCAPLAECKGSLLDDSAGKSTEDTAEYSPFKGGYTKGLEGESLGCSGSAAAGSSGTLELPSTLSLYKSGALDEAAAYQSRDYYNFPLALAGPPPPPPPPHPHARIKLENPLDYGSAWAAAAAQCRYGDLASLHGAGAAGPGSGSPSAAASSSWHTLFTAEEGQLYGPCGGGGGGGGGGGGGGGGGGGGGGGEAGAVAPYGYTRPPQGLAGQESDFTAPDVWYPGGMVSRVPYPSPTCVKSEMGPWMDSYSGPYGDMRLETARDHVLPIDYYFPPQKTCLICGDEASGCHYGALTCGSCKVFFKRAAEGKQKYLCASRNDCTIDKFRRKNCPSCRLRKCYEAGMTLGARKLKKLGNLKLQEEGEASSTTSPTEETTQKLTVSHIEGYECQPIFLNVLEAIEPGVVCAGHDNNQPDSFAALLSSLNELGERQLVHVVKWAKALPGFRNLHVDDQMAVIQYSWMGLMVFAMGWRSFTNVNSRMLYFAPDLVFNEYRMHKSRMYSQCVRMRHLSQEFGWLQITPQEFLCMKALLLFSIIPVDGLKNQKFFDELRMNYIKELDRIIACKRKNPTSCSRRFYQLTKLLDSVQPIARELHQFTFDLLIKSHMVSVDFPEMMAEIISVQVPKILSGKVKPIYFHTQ
Experimental: The compounds used according to the present invention preferably have a binding affinity to the androgen receptor (AR) higher than DHT; more preferably the binding affinity is high by having affinity specific to AR in a range of IC50≤500 nM, preferably IC50≤100 nM and more preferably IC50≤50 nM, wherein IC50 is defined as the concentration of the compound required to reduce specific binding of a reference compound, 5α-dihydrotestosterone (DHT), by 50%. The IC50-values can be determined by known methods using radioactively labelled DHT as reference compound, for example by a standard dextran-coated charcoal adsorption method as described by Raynaud et al., J. Steroid Biochem. 6, 615-622 (1975), using 1 nM reference concentrations of radiolabeled [^3H]-DHT, or by similar IC50 determination methods described in the literature. Because the concentration of AR in the target cell is very low, typically in the nanomolar range approximately, differences in binding constants to the order contemplated in the present invention are significant.

[1] = tested on: variant of the human prostate cancer cell line LNCaP; settings: cited from earlier work
prostate cancer = settings: 5 mg/day for 7 years vs placebo, men over 55 years, PSA less than 3.0 ng/ml; cited from earlier work
[2] = topical treatment over predilection areas of cellulite, within four weeks

| Structure (SMILES) | growth of breast cancer cells in culture (breast cancer cells) | 5α-reduction (5α-reductase) | aromatization (aromatase) | androgenic effect on the skin (hair growth, pimples) (skin; after application to the skin) | concentration of collagen fibres in the skin (skin; topical application to the skin) | topical formulation compared with 4-OHA (skin; topical formulation, collagen content of the skin) | adipocytes entrapped in the mesh of collagen fibres (skin; [2]) | solidification of the skin (skin; [2]) | binding affinity to the AR relative to DHT (androgen receptor (AR)) | proliferation of LNCaP variant [1] | reduction of prostate cancers in the treatment arm (prostate cancer) |
| --- | --- | --- | --- | --- | --- | --- | --- | --- | --- | --- | --- |
| C[C@]12CC[C@H]3[C@@H](CCC4=C(O)C(=O)CC[C@@]43C)[C@@H]1CC[C@@H]2O [4-OHT, 4,17β-dihydroxyandrost-4-en-3-one] | even more effective | escapes aromatization or 5α-reduction | escapes aromatization | no androgenic effect whatsoever could be observed | anabolically increases the concentration of collagen fibres; also recorded: drastic augmentation of collagen fibres | superior than 4-OHA | marked diminution and shrinkage of the adipocytes | considerable solidification of the skin | higher affinity to the AR than DHT | – | – |
| C[C@]12CCC(=O)C[C@@H]1CC[C@@H]1[C@@H]2CC[C@]2(C)[C@@H](O)CC[C@@H]12 [DHT, dihydrotestosterone, reference compound] | able to abolish the growth | – | – | – | – | – | – | – | – | inhibits the proliferation | – |
| CC(C)(C)NC(=O)[C@H]1CC[C@H]2[C@@H]3CC[C@H]4NC(=O)C=C[C@]4(C)[C@H]3CC[C@]12C [finasteride] | – | – | – | – | – | – | – | – | – | – | 25% |
